Measurements as given in publication PMC4039107, “Spores of Clostridium engineered for clinical efficacy and safety cause regression and cure of tumors in vivo” (Oncotarget, 2014).
Like-named read-outs stand apart in the source and are kept apart here.

How the values were obtained:
Type in all cases: biochemical
[1] = biological target: T1, HsoNTR (Histophilus somni, UniProt A0A9Q6YZG6); test: HPLC CB1954 nitroreductase assay
T1 construct: gene JFL49_05940
Description: HPLC CB1954 nitroreductase assay on HsoNTR

[2] = biological target: T2, NmeNTR (Neisseria meningitidis, UniProt Q9K022); test: HPLC CB1954 nitroreductase assay
T2 construct: gene NMB0804
Description: HPLC CB1954 nitroreductase assay on NmeNTR

[3] = biological target: T3, NfnB (Escherichia coli, UniProt P38489); test: menadione reductase activity of C. sporogenes E1 lysate; conditions: background of endogenous quinone reductases in wild type and pyrE mutant controls
T3 construct: gene nfsB; untagged as far as told; expressed from fdx promoter at pyrE locus of C. sporogenes strain E1; cell lysate
T3 sequence (P38489 1-217): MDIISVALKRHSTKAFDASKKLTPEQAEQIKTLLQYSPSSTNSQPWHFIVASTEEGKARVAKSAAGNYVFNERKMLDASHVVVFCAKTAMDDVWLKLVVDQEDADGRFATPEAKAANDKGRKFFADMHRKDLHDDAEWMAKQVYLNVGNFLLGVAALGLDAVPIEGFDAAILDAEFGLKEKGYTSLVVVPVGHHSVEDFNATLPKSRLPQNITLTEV

[4] = kcat is with NADH as co-substrate, read-out: Km ^CB1954
[5] = co-substrate CB1954, read-out: Km ^NADH

T2 sequence (Q9K022 entry or part of it): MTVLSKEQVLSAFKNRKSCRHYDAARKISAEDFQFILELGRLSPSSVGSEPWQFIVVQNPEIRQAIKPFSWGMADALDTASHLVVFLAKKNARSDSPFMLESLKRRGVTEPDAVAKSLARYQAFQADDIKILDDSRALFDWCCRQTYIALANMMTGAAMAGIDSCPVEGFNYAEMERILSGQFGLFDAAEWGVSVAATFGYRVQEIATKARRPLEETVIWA
T1 sequence (A0A9Q6YZG6 entry or part of it): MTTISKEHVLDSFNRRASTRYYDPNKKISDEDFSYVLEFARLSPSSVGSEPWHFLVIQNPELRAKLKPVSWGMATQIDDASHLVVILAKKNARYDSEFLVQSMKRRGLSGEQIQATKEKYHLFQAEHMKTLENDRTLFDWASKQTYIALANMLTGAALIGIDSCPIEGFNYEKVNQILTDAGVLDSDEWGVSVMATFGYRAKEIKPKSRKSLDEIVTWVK

For `NC(=O)c1cc(N2CC2)c([N+](=O)[O-])cc1[N+](=O)[O-]` [CB1954, 5-(aziridin-1-yl)-2,4-dinitrobenzamide], which Km [1, 4] is on record?
Its Km is 22 µM.

What about the Km [2, 4] of the same compound?
The Km was 2.47 µM.

What does the source list for `NC(=O)C1=CN([C@@H]2O[C@H](COP(=O)(O)OP(=O)(O)OC[C@H]3O[C@@H](n4cnc5c(N)ncnc54)[C@H](O)[C@@H]3O)[C@@H](O)[C@H]2O)C=CC1` [NADH]?
Km [1, 5]: 644 µM; Km [2, 5]: 188 µM

Which “specific menadione reductase activity” value [3] does the source give for `CC1=CC(=O)c2ccccc2C1=O` [menadione] here?
Its value is “both E1 and N1 contained menadione reductase activity elevated significantly above the endogenous levels”.
